According to ChEMBL document CHEMBL1140787, “Discovery of beta-benzamido hydroxamic acids as potent, selective, and orally bioavailable TACE inhibitors” (Bioorg Med Chem Lett, 2008):
One block for each compound: values may come before it.

Legend:
Blood = assay: Inhibition of LPS-stimulated TNFalpha release in human whole blood; format: functional, tissue-based
[1] = target: Disintegrin and metalloproteinase domain-containing protein 17 (Sus scrofa, UniProt O77636); assay: Inhibition of pig TACE
[2] = Permeability across human Caco-2 cell membrane; format: ADME, cell-based
Stromelysin-1 = Stromelysin-1 (Homo sapiens, UniProt P08254); assay: Inhibition of MMP3
Matrilysin = target: T1, Matrilysin (Homo sapiens, UniProt P09237); assay: Inhibition of MMP7
T1 sequence (P09237 whole entry): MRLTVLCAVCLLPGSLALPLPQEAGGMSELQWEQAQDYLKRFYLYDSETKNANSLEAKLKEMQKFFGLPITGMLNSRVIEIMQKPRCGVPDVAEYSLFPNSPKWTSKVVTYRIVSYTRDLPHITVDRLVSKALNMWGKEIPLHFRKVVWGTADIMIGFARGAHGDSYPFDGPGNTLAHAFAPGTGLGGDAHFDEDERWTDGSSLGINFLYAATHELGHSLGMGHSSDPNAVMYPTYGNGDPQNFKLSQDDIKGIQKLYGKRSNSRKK

Stromelysin-2 = Stromelysin-2 (Homo sapiens, UniProt P09238); assay: Inhibition of MMP10
[3] = target: Macrophage metalloelastase (Homo sapiens, UniProt P39900); assay: Inhibition of MMP12
[4] = Fraction unbound in rat serum; format: ADME, cell-free
[5] = Fraction unbound in dog serum; format: ADME, cell-free, Canis lupus familiaris
[6] = Fraction unbound in human serum; format: ADME, cell-free
Cytochrome P450 3A4 = Cytochrome P450 3A4 (Homo sapiens, UniProt P08684); assay: Inhibition of CYP3A4 at 20 uM; format: ADME
Mus musculus = assay: Inhibition of LPS-induced TNFalpha production in po dosed mouse endotoxemia model; format: functional
Rattus norvegicus = assay: Inhibition of LPS-induced TNFalpha production in po dosed rat endotoxemia model; format: functional
[7] = Half life in Sprague-Dawley rat at 2 mg/kg, iv; format: ADME, organism-based; design: dose 2 mg/kg, route intravenous; details: in vivo
[8] = Clearance in Sprague-Dawley rat at 2 mg/kg, iv; format: ADME, organism-based; design: dose 2 mg/kg, route intravenous; details: in vivo
[9] = Volume of distribution at steady state in Sprague-Dawley rat at 2 mg/kg, iv; format: ADME, organism-based; design: dose 2 mg/kg, route intravenous; details: in vivo, read-out: Vdss
[10] = AUC in Sprague-Dawley rat at 2 mg/kg, iv; format: ADME, organism-based; design: dose 2 mg/kg, route intravenous; details: plasma
[11] = AUC in Sprague-Dawley rat at 40 mg/kg, po; format: ADME, organism-based; design: dose 40 mg/kg, route oral; details: plasma
[12] = Oral bioavailability in Sprague-Dawley rat at 40 mg/kg; format: ADME, organism-based; details: in vivo
[13] = Tmax in Sprague-Dawley rat at 40 mg/kg, po; format: ADME, organism-based; design: dose 40 mg/kg, route oral; details: in vivo
[14] = Half life in Beagle dog at 2 mg/kg, iv; format: ADME, organism-based, Canis lupus familiaris; design: dose 2 mg/kg, route intravenous; details: in vivo
[15] = Clearance in Beagle dog at 2 mg/kg, iv; format: ADME, organism-based, Canis lupus familiaris; design: dose 2 mg/kg, route intravenous; details: in vivo
[16] = Volume of distribution at steady state in Beagle dog at 2 mg/kg, iv; format: ADME, organism-based, Canis lupus familiaris; design: dose 2 mg/kg, route intravenous; details: in vivo, read-out: Vdss
[17] = AUC in Beagle dog at 2 mg/kg, iv; format: ADME, organism-based, Canis lupus familiaris; design: dose 2 mg/kg, route intravenous; details: plasma
[18] = AUC in Beagle dog at 8 mg/kg, po; format: ADME, organism-based, Canis lupus familiaris; design: dose 8 mg/kg, route oral; details: plasma
[19] = Oral bioavailability in Beagle dog at 8 mg/kg; format: ADME, organism-based, Canis lupus familiaris; details: in vivo
[20] = Tmax in Beagle dog at 8 mg/kg, po; format: ADME, organism-based, Canis lupus familiaris; design: dose 8 mg/kg, route oral; details: in vivo

Chain of Disintegrin and metalloproteinase domain-containing protein 17 (O77636 whole entry, the tested form may be a part): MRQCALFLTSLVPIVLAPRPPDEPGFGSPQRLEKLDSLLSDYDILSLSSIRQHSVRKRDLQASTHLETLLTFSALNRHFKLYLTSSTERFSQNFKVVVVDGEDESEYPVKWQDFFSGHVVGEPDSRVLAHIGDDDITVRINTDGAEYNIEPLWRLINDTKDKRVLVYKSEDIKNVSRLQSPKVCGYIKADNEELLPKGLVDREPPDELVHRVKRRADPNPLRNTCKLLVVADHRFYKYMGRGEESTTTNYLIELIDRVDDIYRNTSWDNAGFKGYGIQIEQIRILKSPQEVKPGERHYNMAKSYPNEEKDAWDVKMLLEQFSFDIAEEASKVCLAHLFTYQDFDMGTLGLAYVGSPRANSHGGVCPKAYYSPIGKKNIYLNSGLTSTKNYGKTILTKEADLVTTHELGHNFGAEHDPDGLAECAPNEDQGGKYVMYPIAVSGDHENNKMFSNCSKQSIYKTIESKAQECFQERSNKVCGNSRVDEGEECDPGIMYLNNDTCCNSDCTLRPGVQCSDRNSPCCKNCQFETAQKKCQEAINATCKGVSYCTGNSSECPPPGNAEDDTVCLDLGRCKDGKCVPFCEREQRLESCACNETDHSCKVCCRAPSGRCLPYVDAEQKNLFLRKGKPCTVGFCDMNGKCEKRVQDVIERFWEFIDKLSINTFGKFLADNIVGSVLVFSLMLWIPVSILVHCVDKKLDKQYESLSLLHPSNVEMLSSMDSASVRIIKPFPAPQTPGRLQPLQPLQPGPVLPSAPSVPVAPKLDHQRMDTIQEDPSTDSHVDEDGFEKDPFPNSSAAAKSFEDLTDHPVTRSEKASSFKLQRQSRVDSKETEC
Chain of Stromelysin-1 (P08254 whole entry): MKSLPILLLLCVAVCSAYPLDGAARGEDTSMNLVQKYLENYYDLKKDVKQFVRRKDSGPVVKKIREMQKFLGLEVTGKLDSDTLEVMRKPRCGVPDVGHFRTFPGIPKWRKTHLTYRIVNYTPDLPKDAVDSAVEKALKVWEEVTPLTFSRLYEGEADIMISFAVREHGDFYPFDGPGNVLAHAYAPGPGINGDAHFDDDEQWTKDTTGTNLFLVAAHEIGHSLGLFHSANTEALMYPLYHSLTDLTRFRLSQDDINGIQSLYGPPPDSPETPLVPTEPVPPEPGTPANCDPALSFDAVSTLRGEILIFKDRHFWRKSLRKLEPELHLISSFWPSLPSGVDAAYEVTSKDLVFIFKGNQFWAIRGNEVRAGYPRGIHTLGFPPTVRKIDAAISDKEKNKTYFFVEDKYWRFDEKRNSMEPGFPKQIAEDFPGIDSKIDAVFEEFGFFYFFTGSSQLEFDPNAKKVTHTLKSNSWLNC
Chain of Macrophage metalloelastase (P39900 whole entry): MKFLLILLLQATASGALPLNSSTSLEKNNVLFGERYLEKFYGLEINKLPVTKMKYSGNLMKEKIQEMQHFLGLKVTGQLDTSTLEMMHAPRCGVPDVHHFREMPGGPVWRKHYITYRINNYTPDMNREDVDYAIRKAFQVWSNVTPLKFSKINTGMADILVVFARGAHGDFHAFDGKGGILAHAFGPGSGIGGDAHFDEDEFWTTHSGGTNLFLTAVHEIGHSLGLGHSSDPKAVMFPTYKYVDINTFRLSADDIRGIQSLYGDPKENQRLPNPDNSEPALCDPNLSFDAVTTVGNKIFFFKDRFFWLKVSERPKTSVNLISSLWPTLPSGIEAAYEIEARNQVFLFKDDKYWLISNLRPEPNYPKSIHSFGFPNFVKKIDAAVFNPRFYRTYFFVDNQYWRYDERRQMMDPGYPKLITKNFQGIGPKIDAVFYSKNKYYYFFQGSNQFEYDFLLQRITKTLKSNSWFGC
Chain of Stromelysin-2 (P09238 whole entry): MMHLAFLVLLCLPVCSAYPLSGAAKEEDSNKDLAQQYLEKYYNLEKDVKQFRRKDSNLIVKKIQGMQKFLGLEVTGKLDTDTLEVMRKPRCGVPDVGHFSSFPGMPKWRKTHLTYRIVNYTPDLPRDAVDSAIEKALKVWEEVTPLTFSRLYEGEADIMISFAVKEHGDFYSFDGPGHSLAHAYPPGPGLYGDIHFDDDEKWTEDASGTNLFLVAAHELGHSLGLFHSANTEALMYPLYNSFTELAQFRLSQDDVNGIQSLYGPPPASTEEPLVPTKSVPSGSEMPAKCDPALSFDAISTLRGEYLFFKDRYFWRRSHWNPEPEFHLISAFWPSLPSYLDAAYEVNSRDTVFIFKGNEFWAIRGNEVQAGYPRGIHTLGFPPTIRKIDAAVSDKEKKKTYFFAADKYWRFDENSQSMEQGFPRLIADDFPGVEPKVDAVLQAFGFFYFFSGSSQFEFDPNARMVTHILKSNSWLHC
Chain of Cytochrome P450 3A4 (P08684 whole entry): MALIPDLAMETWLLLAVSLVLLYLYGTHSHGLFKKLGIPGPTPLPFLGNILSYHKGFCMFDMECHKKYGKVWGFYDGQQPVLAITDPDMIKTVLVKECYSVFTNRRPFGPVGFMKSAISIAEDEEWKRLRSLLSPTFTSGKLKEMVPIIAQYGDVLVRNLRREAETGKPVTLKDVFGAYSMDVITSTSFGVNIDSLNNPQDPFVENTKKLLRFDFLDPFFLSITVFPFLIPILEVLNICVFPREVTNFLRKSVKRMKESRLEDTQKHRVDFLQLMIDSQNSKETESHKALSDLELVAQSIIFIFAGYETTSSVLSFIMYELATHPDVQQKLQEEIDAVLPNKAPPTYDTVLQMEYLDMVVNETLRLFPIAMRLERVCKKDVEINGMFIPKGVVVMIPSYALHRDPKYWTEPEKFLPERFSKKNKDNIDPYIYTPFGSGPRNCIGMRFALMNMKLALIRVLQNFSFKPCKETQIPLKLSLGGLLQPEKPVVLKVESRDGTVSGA

IC50 (Blood): 20 nM
Compound: Cc1cc(COc2ccc(NC(=O)[C@@H]3[C@@H](C(=O)NO)CCCN3C)cc2)c2ccccc2n1

IC50 [1]: 2 nM
IC50 (Blood): 44 nM
Papp [2]: 0.6 ×10⁻⁶ cm/s
Compound: Cc1cc(COc2ccc(C(=O)N[C@@H]3CN(C(C)(C)C)CC[C@@H]3C(=O)NO)cc2)c2ccccc2n1

IC50 [1]: 2 nM
IC50 (Blood): 55 nM
Papp [2]: 0.1 ×10⁻⁶ cm/s
Compound: Cc1cc(COc2ccc(C(=O)N[C@@H]3CN(CCN(C)C)CC[C@@H]3C(=O)NO)cc2)c2ccccc2n1

Compound: Cc1cc(COc2ccc(C(=O)N[C@@H]3CCOC[C@@H]3C(=O)NO)cc2)c2ccccc2n1
IC50 [1]: < 1 nM
Ki [1]: 0.15 nM
IC50 (Blood): 130 nM
Papp [2]: 2.3 ×10⁻⁶ cm/s
Ki (Stromelysin-1): < 100 nM
Ki (Matrilysin): < 100 nM
Ki (Stromelysin-2): < 100 nM
Ki [3]: < 100 nM
fraction unbound [4]: 0.038
fraction unbound [5]: 0.17
fraction unbound [6]: 0.075
Activity (Cytochrome P450 3A4): Not Active
ED50 (Mus musculus): 2.2 mg/kg
ED50 (Rattus norvegicus): 3 mg/kg
half-life [7]: 84 min
clearance [8]: 11.7 mL/min/kg
Vd [9]: 0.4 L/kg
AUC [10]: 5.7 µM·h
AUC [11]: 65 µM·h
bioavailability [12]: 58%
Tmax [13]: 24 min
half-life [14]: 96 min
clearance [15]: 28.3 mL/min/kg
Vd [16]: 1.6 L/kg
AUC [17]: 2.7 µM·h
AUC [18]: 11 µM·h
bioavailability [19]: 96%
Tmax [20]: 12 min

Compound: Cc1cc(COc2ccc(C(=O)N[C@@H]3COCC[C@@H]3C(=O)NO)cc2)c2ccccc2n1
IC50 [1]: < 1 nM
IC50 (Blood): 290 nM
Papp [2]: 0.4 ×10⁻⁶ cm/s

IC50 [1]: 2 nM
IC50 (Blood): > 3000 nM
Compound: Cc1cc(COc2ccc(C(=O)N[C@@H]3CCCC[C@H]3C(=O)NO)cc2)c2ccccc2n1

IC50 [1]: 2 nM
IC50 (Blood): 890 nM
Papp [2]: 3.4 ×10⁻⁶ cm/s
Compound: Cc1cc(COc2ccc(C(=O)N[C@@H]3CCCC[C@@H]3C(=O)NO)cc2)c2ccccc2n1

IC50 [1]: 1 nM
IC50 (Blood): 2860 nM
Papp [2]: 0.4 ×10⁻⁶ cm/s
Compound: Cc1cc(COc2ccc(C(=O)NC3CCC3C(=O)NO)cc2)c2ccccc2n1 (configuration not stated)

IC50 [1]: 1 nM
IC50 (Blood): 187 nM
Papp [2]: 0.2 ×10⁻⁶ cm/s
Compound: Cc1cc(COc2ccc(C(=O)N[C@@H]3CNCC[C@@H]3C(=O)NO)cc2)c2ccccc2n1

IC50 [1]: 24 nM
IC50 (Blood): 620 nM
Papp [2]: 0.2 ×10⁻⁶ cm/s
Compound: Cc1cc(COc2ccc(C(=O)N[C@@H]3CCNC[C@@H]3C(=O)NO)cc2)c2ccccc2n1

IC50 [1]: 3 nM
IC50 (Blood): 4110 nM
Papp [2]: 0.06 ×10⁻⁶ cm/s
Compound: Cc1cc(COc2ccc(C(=O)N[C@@H]3CCCO[C@@H]3C(=O)NO)cc2)c2ccccc2n1

IC50 [1]: < 1 nM
IC50 (Blood): 393 nM
Compound: Cc1cc(COc2ccc(C(=O)N[C@H]3CNCC[C@@H]3C(=O)NO)cc2)c2ccccc2n1
